Structures can show the parent of a compound that is named as a salt.
What was measured:
human CYP11B1 = human CYP11B1 (Homo sapiens (Human), UniProt P15538); assay: G-402 cellular enzyme assay, human CYP11B1 (cortisol release); format: cell-based; details: G-402 cells expressing human CYP11B1, 1 μM Deoxycortisol
Description: (§1) The expression plasmids contains the ORF for either human/cyno CYP11B1 or CYP11B2 under the control of a suitable promoter (CMV-promoter) and a suitable resistance marker (neomycin). Using standard techniques the expression plasmid is transfected into G-402 cells and these cells are then selected for expressing the given resistance markers. Individual cell-clones are then selected and assessed for displaying the desired enzymatic activity using 11-Deoxycorticosterone (Cyp 11B2) or 11-Deoxycortisol (Cyp 11B1) as a substrate.
(§2) G-402 cells expressing CYP11 constructs were established as described above and maintained in McCoy's 5a Medium Modified, ATCC Catalog No. 30-2007 containing 10% FCS and 400 μg/ml G418 (Geneticin) at 37° C. under an atmosphere of 5% CO2/95% air. […] For assaying enzymatic activity, cells were plated onto 96 well plates and incubated for 16 h. An aliquot of the supernatant is then transferred and analyzed for the concentration of the expected product (Aldosterone for CYP11B2; Cortisol for CYP11B1). The concentrations of these steroids can be determined using HTRF assays from CisBio analyzing either Aldosterone or Cortisol.
(§3) Inhibition of the release of produced steroids can be used as a measure of the respective enzyme inhibition by test compounds added during the cellular enzyme assay. The dose dependent inhibition of enzymatic activity by a compound is calculated by means of plotting added inhibitor concentrations (x-axes) vs. measured steroid/product level (y-axes). The inhibition is then calculated by fitting the following 4-parameter sigmoidal function (Morgan-Mercer-Flodin (MMF) model) to the raw data points using the least squares method:
(§4) [formula] wherein, A is the maximum y value, B is the EC50 factor determined using XLFit, C is the minimum y value and D is the slope value.
(§5) EC50 values for compounds claimed herein were tested with the G402-based assay system described. Cyp 11B2 enzyme activity was tested in presence of 1 μM Deoxycorticosterone and variable amounts of inhibitors; Cyp 11B1 enzyme activity was tested in presence of 1 μM Deoxycortisol and variable amounts of inhibitors.

CYP11B2 = CYP11B2 (Homo sapiens (Human), UniProt P19099); assay: G-402 cellular enzyme assay, human CYP11B2 (aldosterone release); format: cell-based; details: G-402 cells expressing human CYP11B2, 1 μM Deoxycorticosterone
CYP11B2, sequence (P19099 25-503): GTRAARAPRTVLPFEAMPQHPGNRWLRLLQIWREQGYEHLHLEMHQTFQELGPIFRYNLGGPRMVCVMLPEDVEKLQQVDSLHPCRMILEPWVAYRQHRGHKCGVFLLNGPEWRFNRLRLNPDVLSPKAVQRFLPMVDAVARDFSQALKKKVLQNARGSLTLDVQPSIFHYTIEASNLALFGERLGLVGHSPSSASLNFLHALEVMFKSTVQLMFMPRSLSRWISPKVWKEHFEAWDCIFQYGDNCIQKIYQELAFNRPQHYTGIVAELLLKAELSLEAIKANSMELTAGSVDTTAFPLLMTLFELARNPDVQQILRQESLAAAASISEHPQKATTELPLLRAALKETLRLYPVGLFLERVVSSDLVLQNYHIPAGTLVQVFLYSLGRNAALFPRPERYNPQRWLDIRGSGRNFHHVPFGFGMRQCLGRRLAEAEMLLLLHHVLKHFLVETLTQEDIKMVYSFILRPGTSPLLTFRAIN
Description: as §1, §2, §3, §4, §5

human CYP11B1, sequence (P15538 25-503): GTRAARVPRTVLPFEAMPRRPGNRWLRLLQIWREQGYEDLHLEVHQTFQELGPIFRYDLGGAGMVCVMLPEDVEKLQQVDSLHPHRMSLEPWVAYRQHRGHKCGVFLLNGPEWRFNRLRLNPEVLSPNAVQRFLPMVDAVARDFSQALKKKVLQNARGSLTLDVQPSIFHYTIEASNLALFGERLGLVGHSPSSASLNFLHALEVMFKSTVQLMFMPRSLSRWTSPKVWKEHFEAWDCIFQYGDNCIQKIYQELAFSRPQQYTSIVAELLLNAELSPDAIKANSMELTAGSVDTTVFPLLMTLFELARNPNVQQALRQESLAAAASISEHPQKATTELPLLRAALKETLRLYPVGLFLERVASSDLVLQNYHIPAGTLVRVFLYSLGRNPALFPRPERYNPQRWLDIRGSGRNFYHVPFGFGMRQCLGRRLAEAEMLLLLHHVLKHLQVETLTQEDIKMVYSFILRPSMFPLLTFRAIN

| SMILES | EC50 (human CYP11B1) | EC50 (CYP11B2) |
| --- | --- | --- |
| CCC(=O)NC1CCCc2c(-c3ccc(F)c(F)c3)cncc21 (racemic) [Example 44, (rac)-N-(4-(3,4-Difluorophenyl)-5,6,7,8-tetrahydroisoquinolin-8-yl)propionamide] | 826 nM | 47 nM |
| CCC(=O)NC1CCCc2c(-c3ccc(Cl)c(Cl)c3)cncc21 (racemic) [Example 45, (rac)-N-(4-(3,4-Dichlorophenyl)-5,6,7,8-tetrahydroisoquinolin-8-yl)propionamide] | 177 nM | 3 nM |
| CCC(=O)NC1CCc2c(-c3ccc(C(F)(F)F)cc3)cncc21 (racemic) [Example 49, (rac)-N-(4-(4-(Trifluoromethyl)phenyl)-6,7-dihydro-5H-cyclopenta[c]pyridin-7-yl)propionamide] | 4040 nM | 79 nM |
| CCC(=O)NC1CCc2c(-c3ccc(Cl)c(F)c3)cncc21 (racemic) [Example 55, (rac)-N-(4-(4-Chloro-3-fluorophenyl)-6,7-dihydro-5H-cyclopenta[c]pyridin-7-yl)propionamide] | 184 nM | 12 nM |
| CCC(=O)NC1CCc2c(-c3ccc(F)c(C)c3)cncc21 (racemic) [Example 58, (rac)-N-(4-(4-Fluoro-3-methylphenyl)-6,7-dihydro-5H-cyclopenta[c]pyridin-7-yl)propionamide] | 156 nM | 10 nM |
| CCC(=O)NC1CCc2c(-c3ccc(C(F)(F)F)cc3F)cncc21 (racemic) [Example 61, (rac)-N-(4-(2-Fluoro-4-(trifluoromethyl)phenyl)-6,7-dihydro-5H-cyclopenta[c]pyridin-7-yl)propionamide] | 3610 nM | 44 nM |
| CCS(=O)(=O)NC1CCc2c(-c3ccc(C(F)(F)F)cc3)cncc21 (racemic) [Example 64, (rac)-N-(4-(4-(Trifluoromethyl)phenyl)-6,7-dihydro-5H-cyclopenta[c]pyridin-7-yl)ethanesulfonamide] | 12700 nM | 730 nM |
| CCS(=O)(=O)NC1CCc2c(-c3ccc(C(F)(F)F)c(F)c3)cncc21 (racemic) [Example 71, (rac)-N-(4-(3-Fluoro-4-(trifluoromethyl)phenyl)-6,7-dihydro-5H-cyclopenta[c]pyridin-7-yl)ethanesulfonamide] | 3020 nM | 242 nM |
| OC1CCc2c(-c3ccc(C(F)(F)F)cc3F)cncc21 (racemic) [Example 80, (rac)-4-(2-Fluoro-4-(trifluoromethyl)phenyl)-6,7-dihydro-5H-cyclopenta[c]pyridin-7-ol] | 427 nM | 4.5 nM |
| N#Cc1ccc(-c2cncc3c2CCC3O)cc1 (racemic) [Example 81, (rac)-4-(7-Hydroxy-6,7-dihydro-5H-cyclopenta[c]pyridin-4-yl)benzonitrile] | 12 nM | 1.3 nM |
| OC1CCc2c(-c3ccc(C(F)(F)F)c(F)c3)cncc21 (racemic) [Example 82, (rac)-4-(3-Fluoro-4-(trifluoromethyl)phenyl)-6,7-dihydro-5H-cyclopenta[c]pyridin-7-ol] | 71 nM | 5.2 nM |
| OC1CCc2c(-c3ccc(C(F)(F)F)cc3)cncc21 (racemic) [Example 83, (rac)-4-(4-(Trifluoromethyl)phenyl)-6,7-dihydro-5H-cyclopenta[c]pyridin-7-ol] | 740 nM | 16.9 nM |
| CC1(O)CCc2c(-c3ccc(C(F)(F)F)cc3)cncc21 (racemic) [Example 84, (rac)-7-Methyl-4-(4-(trifluoromethyl)phenyl)-6,7-dihydro-5H-cyclopenta[c]pyridin-7-ol] | 5 nM | 4.8 nM |
| NC1CCc2c(-c3ccc(C(F)(F)F)c(F)c3)cncc21 (racemic) [Example 89, (rac)-4-(3-Fluoro-4-trifluoromethyl-phenyl)-6,7-dihydro-5H-[2]pyrindin-7-ylamine] | 1380 nM | 54.7 nM |
| CCC(=O)NC1CCc2c(-c3ccc(C(F)(F)F)c(F)c3)cncc21 (racemic) [Example 90, (rac)-N-(4-(3-Fluoro-4-(trifluoromethyl)phenyl)-6,7-dihydro-5H-cyclopenta[c]pyridin-7-yl)propionamide] | 1900 nM | 26.7 nM |
| O=S(=O)(NC1CCc2c(-c3ccc(C(F)(F)F)c(F)c3)cncc21)C1CC1 (racemic) [Example 91, (rac)-Cyclopropanesulfonic acid [4-(3-fluoro-4-trifluoromethyl-phenyl)-6,7-dihydro-5H-[2]pyrindin-7-yl]-amide] | 389 nM | 301 nM |
| CCC(=O)OC1CCc2c(-c3ccc(C(F)(F)F)c(F)c3)cncc21 (racemic) [Example 92, (rac)-Propionic acid 4-(3-fluoro-4-trifluoromethyl-phenyl)-6,7-dihydro-5H-[2]pyrindin-7-yl ester] | 441 nM | 16.4 nM |
| NC1CCc2c(-c3ccc(C(F)(F)F)cc3)cncc21 (racemic) [Example 93, (rac)-4-(4-Trifluoromethyl-phenyl)-6,7-dihydro-5H-[2]pyrindin-7-ylamine] | 364 nM | 86.3 nM |
| O=S(=O)(NC1CCc2c(-c3ccc(C(F)(F)F)cc3)cncc21)C1CC1 (racemic) [Example 94, (rac)-Cyclopropanesulfonic acid [4-(4-trifluoromethyl-phenyl)-6,7-dihydro-5H-[2]pyrindin-7-yl]-amide] | 2330 nM | 148 nM |
| CS(=O)(=O)NC1CCc2c(-c3ccc(C(F)(F)F)cc3)cncc21 (racemic) [Example 95, (rac)-N-[4-(4-Trifluoromethyl-phenyl)-6,7-dihydro-5H-[2]pyrindin-7-yl]-methanesulfonamide] | 1960 nM | 1800 nM |
| CCCS(=O)(=O)NC1CCc2c(-c3ccc(C(F)(F)F)cc3)cncc21 (racemic) [Example 96, (rac)-Propane-1-sulfonic acid [4-(4-trifluoromethyl-phenyl)-6,7-dihydro-5H-[2]pyrindin-7-yl]-amide] | 3870 nM | 373 nM |
| CC(C)(C)OC(=O)COC1CCc2c(-c3ccc(C(F)(F)F)cc3)cncc21 (racemic) [Example 97, (rac)-tert-Butyl 2-(4-(4-(trifluoromethyl)phenyl)-6,7-dihydro-5H-cyclopenta[c]pyridin-7-yloxy)acetate] | 72.4 nM | 1.4 nM |
| COC(=O)COC1CCc2c(-c3ccc(C(F)(F)F)cc3)cncc21 (racemic) [Example 98, (rac)-Methyl 2-(4-(4-(trifluoromethyl)phenyl)-6,7-dihydro-5H-cyclopenta[c]pyridin-7-yloxy)acetate] | 628 nM | 19.6 nM |
| O=C(O)COC1CCc2c(-c3ccc(C(F)(F)F)cc3)cncc21 (racemic) [Example 99, (rac)-2-(4-(4-(Trifluoromethyl)phenyl)-6,7-dihydro-5H-cyclopenta[c]pyridin-7-yloxy)acetic acid hydrochloride] | 1190 nM | 65.9 nM |
| CNC(=O)COC1CCc2c(-c3ccc(C(F)(F)F)cc3)cncc21 (racemic) [Example 100, (rac)-N-Methyl-2-(4-(4-(trifluoromethyl)phenyl)-6,7-dihydro-5H-cyclopenta[c]pyridin-7-yloxy)acetamide] | 430 nM | 12.9 nM |
| CN(C)C(=O)COC1CCc2c(-c3ccc(C(F)(F)F)cc3)cncc21 (racemic) [Example 101, (rac)-N,N-Dimethyl-2-(4-(4-(trifluoromethyl)phenyl)-6,7-dihydro-5H-cyclopenta[c]pyridin-7-yloxy)acetamide] | 1270 nM | 26.9 nM |
| NC(=O)COC1CCc2c(-c3ccc(C(F)(F)F)cc3)cncc21 (racemic) [Example 102, (rac)-2-(4-(4-(Trifluoromethyl)phenyl)-6,7-dihydro-5H-cyclopenta[c]pyridin-7-yloxy)acetamide] | 40.8 nM | 1.1 nM |
| CC1(COC2CCc3c(-c4ccc(C(F)(F)F)cc4)cncc32)COC1 (racemic) [Example 103, (rac)-7-((3-Methyloxetan-3-yl)methoxy)-4-(4-(trifluoromethyl)phenyl)-6,7-dihydro-5H-cyclopenta[c]pyridine] | 2.3 nM | 0.2 nM |
| OC1CCCc2c(-c3ccc(C(F)(F)F)cc3)cncc21 (racemic) [Example 104, (rac)-4-(4-(Trifluoromethyl)phenyl)-5,6,7,8-tetrahydroisoquinolin-8-ol] | 710 nM | 14.6 nM |
| CCC(=O)N[C@@H]1c2cncc(-c3ccc(C(F)(F)F)cc3)c2CC[C@H]1C (single isomer, unassigned) [Example 67, N-[(7R,8S or 7S,8R)-7-Methyl-4-(4-trifluoromethyl-phenyl)-5,6,7,8-tetrahydro-isoquinolin-8-yl]-propionamide] | 8470 nM | 764 nM |

— patent US9187429B2, “Phenyl-tetrahydroisoquinoline derivatives” (Hoffmann-La Roche Inc., priority 2012, dated 2015)
